By IC50 is commonly meant the concentration at which inhibition is half-maximal. Low readings indicate higher potency, high ones lower potency.

Each structure is given as a SMILES string.

In one experiment the test system is renin maintained blood pressure (Hog renin infused). The experiment is described as follows: lowering renin maintained blood pressure in the anesthetized, vagotomized, ganglionic-blocked rat (hog renin infused). The following applies: 1 mg/kg IV. The experiment is classed as in vivo. On the procedure:
The effectiveness of the aforementioned compounds in vivo is determined by their effect on lowering renin maintained blood pressure in the anesthetized, vagotomized, ganglionic-blocked rat.
After the blood pressure has stabilized, 1.25 mg/kg IV mecamylamine is added to produce ganglionic blockade. Hog renin is then infused to bring the blood pressure to a level observed before vagotomy and ganglionic blockade. Test compound is then administered IV and the drop in blood pressure is noted.
The compound was administered at as dose of 1 mg/kg.
On to `CC(C)C[C@H](NC(=O)C[C@H](O)[C@H](CC(C)C)NC(=O)[C@H](Cc1c[nH]cn1)NC(=O)C(Cc1cccc2ccccc12)Cc1cccc2ccccc12)C(=O)NCc1ccccc1` [Example 1, DNMA-HIS-STA-LEU-NHCH2 Ph], for which the “Percent Decrease of Blood Pressure” value worked out at 65%.

The next experiment deals with T1, renin (Homo sapiens, UniProt P00797).
T1 sequence (P00797 67-406): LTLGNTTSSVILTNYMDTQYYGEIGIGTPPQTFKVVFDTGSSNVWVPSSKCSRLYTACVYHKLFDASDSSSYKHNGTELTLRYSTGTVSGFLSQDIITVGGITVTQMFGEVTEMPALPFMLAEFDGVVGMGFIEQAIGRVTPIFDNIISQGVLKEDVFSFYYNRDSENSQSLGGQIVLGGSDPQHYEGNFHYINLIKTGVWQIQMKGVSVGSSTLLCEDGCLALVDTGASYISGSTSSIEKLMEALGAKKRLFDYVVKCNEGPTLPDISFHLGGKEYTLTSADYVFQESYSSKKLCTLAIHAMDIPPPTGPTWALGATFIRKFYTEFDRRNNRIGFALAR
The experiment is described as follows: in vitro renin inhibitory activity, radioimmunoassay for angiotensin I. The experiment is classed as biochemical. Conditions: molar concentration causing 50% inhibition of renin activity; renin incubated two hours at 37° with angiotensinogen. On the procedure:
The effectiveness of the aforementioned compound is determined by a test for in vitro renin inhibitory activity. This activity is determined by a standard radioimmunoassay for angiotensin I. In this assay the enzyme, renin, incubated for two hours at 37° in the presence of a substrate, angiotensinogen, generates the product, angiotensin I. Test compounds are added to the incubation mixture. Relative activity is reported as the IC50, which is the molar concentration of test compound causing a 50% inhibition of the renin activity.
Molecule `CC(C)C[C@H](NC(=O)C[C@H](O)[C@H](CC1CCCCC1)NC(=O)[C@H](CC(=O)O)NC(=O)C(Cc1cccc2ccccc12)Cc1cccc2ccccc12)C(=O)NCc1ccccc1` [Example 17, DNMA-ASP-CYSTA-LEU-NHCH2 Ph] had an IC50 of 980 nM.

`CC(C)C[C@H](NC(=O)[C@H](Cc1c[nH]cn1)NC(=O)C(Cc1cccc2ccccc12)Cc1cccc2ccccc12)[C@@H](O)CC(=O)NCC(O)CS(=O)(=O)C(C)C` (some centres unmarked) [Example 4, DNMA-HIS-STA-NHCH2 CH(OH)CH2 SO2 CH(CH3)2] returned a half-inhibitory concentration (IC50) of 82 nM.

Regarding `CC[C@H](C)CNC(=O)C[C@H](O)[C@H](CC(C)C)NC(=O)[C@H](Cc1c[nH]cn1)NC(=O)C(Cc1cccc2ccccc12)C(=O)OC(C)(C)C` (some centres unmarked) [Example 2], the IC50 is 560 nM.

Take `CC(C)C[C@H](NC(=O)C[C@H](O)[C@H](CC(C)C)NC(=O)[C@H](Cc1c[nH]cn1)NC(=O)C(Cc1ccccc1)SCc1ccccc1)C(=O)NCc1ccccc1` (some centres unmarked) [Example 11]: 2200 nM corresponded to half-maximal inhibition (IC50).

Consider `CC(C)C[C@H](NC(=O)C[C@H](O)[C@H](CC(C)C)NC(=O)[C@H](Cc1cnc[nH]1)N(C)C(=O)C(Cc1cccc2ccccc12)Cc1cccc2ccccc12)C(=O)NCc1ccccc1` [Example 20, DNMA-(N-MeHIS)-STA-LEU-NHCH2 Ph], for which the midpoint of inhibition, the IC50, lay at 4100 nM.

Molecule `CC(C)C[C@H](NC(=O)[C@H](Cc1c[nH]cn1)NC(=O)C(Cc1cccc2ccccc12)Cc1cccc2ccccc12)[C@@H](O)CC(=O)NCC(O)CSC(C)C` (some centres unmarked) [Example 3, DNMA-HIS-STA-NHCH2 CH(OH)CH2 SCH(CH3)2] had a concentration for half-maximal inhibition (IC50) of 220 nM.

The molecule `CC(C)C[C@H](NC(=O)[C@H](Cc1c[nH]cn1)NC(=O)C(Cc1cccc2ccccc12)Cc1cccc2ccccc12)[C@@H](O)CC(=O)NCc1cccc(CNC(=O)OCc2ccccc2)c1` [Example 22] gave an IC50 of 4000 nM.
